Reference: ChEMBL document CHEMBL4000244, “Probing A-form DNA: A fluorescent aminosugar probe and dual recognition by anthraquinone-neomycin conjugates” (Bioorg Med Chem, 2017)

Tests used:
[1] = Binding affinity to 5'-GGCCGGGC-3' DNA hairpin assessed as change in fluorescence intensity at 1 uM after 45 mins by fluorescence quenching analysis relative to control
[2] = Binding affinity to 5'-GGGCGGCC-3' DNA hairpin assessed as change in fluorescence intensity at 1 uM after 45 mins by fluorescence quenching analysis relative to control
[3] = Binding affinity to 5'-CCGGGCCC-3' DNA hairpin assessed as change in fluorescence intensity at 1 uM after 45 mins by fluorescence quenching analysis relative to control
[4] = Binding affinity to 5'-CGGCGGGG-3' DNA hairpin assessed as change in fluorescence intensity at 1 uM after 45 mins by fluorescence quenching analysis relative to control
[5] = Binding affinity to 5'-CCGGGCCG-3' DNA hairpin assessed as change in fluorescence intensity at 1 uM after 45 mins by fluorescence quenching analysis relative to control
[6] = Binding affinity to 5'-CCCCGGCC-3' DNA hairpin assessed as change in fluorescence intensity at 1 uM after 45 mins by fluorescence quenching analysis relative to control
[7] = Binding affinity to 5'-GCGCGCGG-3' DNA hairpin assessed as change in fluorescence intensity at 1 uM after 45 mins by fluorescence quenching analysis relative to control
[8] = Binding affinity to 5'-CGCCCCCC-3' DNA hairpin assessed as change in fluorescence intensity at 1 uM after 45 mins by fluorescence quenching analysis relative to control
[9] = Binding affinity to 5'-GGCCGCCC-3' DNA hairpin assessed as change in fluorescence intensity at 1 uM after 45 mins by fluorescence quenching analysis relative to control
[10] = Binding affinity to 5'-GCCCGCGC-3' DNA hairpin assessed as change in fluorescence intensity at 1 uM after 45 mins by fluorescence quenching analysis relative to control
[11] = Binding affinity to 5'-CCGCCCCG-3' DNA hairpin assessed as change in fluorescence intensity at 1 uM after 45 mins by fluorescence quenching analysis relative to control
[12] = Binding affinity to 5'-CCGGCGCC-3' DNA hairpin assessed as change in fluorescence intensity at 1 uM after 45 mins by fluorescence quenching analysis relative to control
[13] = Binding affinity to 5'-CCCGGGCC-3' DNA hairpin assessed as change in fluorescence intensity at 1 uM after 45 mins by fluorescence quenching analysis relative to control
[14] = Binding affinity to 5'-GCGCGCGC-3' DNA hairpin assessed as change in fluorescence intensity at 1 uM after 45 mins by fluorescence quenching analysis relative to control
[15] = Binding affinity to 5'-CCCCGCCC-3' DNA hairpin assessed as change in fluorescence intensity at 1 uM after 45 mins by fluorescence quenching analysis relative to control
[16] = Binding affinity to 5'-GGCCCCCG-3' DNA hairpin assessed as change in fluorescence intensity at 1 uM after 45 mins by fluorescence quenching analysis relative to control
[17] = Binding affinity to 5'-CGGCCGCG-3' DNA hairpin assessed as change in fluorescence intensity at 1 uM after 45 mins by fluorescence quenching analysis relative to control
[18] = Binding affinity to 5'-CCCGCCCC-3' DNA hairpin assessed as change in fluorescence intensity at 1 uM after 45 mins by fluorescence quenching analysis relative to control
[19] = Binding affinity to 5'-GGCCGCCG-3' DNA hairpin assessed as change in fluorescence intensity at 1 uM after 45 mins by fluorescence quenching analysis relative to control
[20] = Binding affinity to 5'-GCGCCCCG-3' DNA hairpin assessed as change in fluorescence intensity at 1 uM after 45 mins by fluorescence quenching analysis relative to control
[21] = Binding affinity to 5'-CGCGCGGC-3' DNA hairpin assessed as change in fluorescence intensity at 1 uM after 45 mins by fluorescence quenching analysis relative to control
[22] = Binding affinity to 5'-CCGGGGGC-3' DNA hairpin assessed as change in fluorescence intensity at 1 uM after 45 mins by fluorescence quenching analysis relative to control
[23] = Binding affinity to 5'-GGGCCCCC-3' DNA hairpin assessed as change in fluorescence intensity at 1 uM after 45 mins by fluorescence quenching analysis relative to control
[24] = Binding affinity to 5'-GGCCGGCG-3' DNA hairpin assessed as change in fluorescence intensity at 1 uM after 45 mins by fluorescence quenching analysis relative to control
[25] = Binding affinity to 5'-GGGGCGCG-3' DNA hairpin assessed as change in fluorescence intensity at 1 uM after 45 mins by fluorescence quenching analysis relative to control
[26] = Binding affinity to 5'-CCGCGGGC-3' DNA hairpin assessed as change in fluorescence intensity at 1 uM after 45 mins by fluorescence quenching analysis relative to control
[27] = Binding affinity to 5'-CCCCGGGG-3' DNA hairpin assessed as change in fluorescence intensity at 1 uM after 45 mins by fluorescence quenching analysis relative to control
[28] = Binding affinity to 5'-GGGCGGGC-3' DNA hairpin assessed as change in fluorescence intensity at 1 uM after 45 mins by fluorescence quenching analysis relative to control
[29] = Binding affinity to 5'-GGCGCGGG-3' DNA hairpin assessed as change in fluorescence intensity at 1 uM after 45 mins by fluorescence quenching analysis relative to control
[30] = Binding affinity to 5'-CCGCGCCC-3' DNA hairpin assessed as change in fluorescence intensity at 1 uM after 45 mins by fluorescence quenching analysis relative to control
[31] = Binding affinity to 5'-GCGGCCGC-3' DNA hairpin assessed as change in fluorescence intensity at 1 uM after 45 mins by fluorescence quenching analysis relative to control
[32] = Binding affinity to 5'-GGGCGCCG-3' DNA hairpin assessed as change in fluorescence intensity at 1 uM after 45 mins by fluorescence quenching analysis relative to control
[33] = Binding affinity to 5'-CGCCGGGC-3' DNA hairpin assessed as change in fluorescence intensity at 1 uM after 45 mins by fluorescence quenching analysis relative to control
[34] = Binding affinity to 5'-CCGGCCCG-3' DNA hairpin assessed as change in fluorescence intensity at 1 uM after 45 mins by fluorescence quenching analysis relative to control
[35] = Binding affinity to 5'-CGGGGGGG-3' DNA hairpin assessed as change in fluorescence intensity at 1 uM after 45 mins by fluorescence quenching analysis relative to control
[36] = Binding affinity to 5'-GCGCCGCG-3' DNA hairpin assessed as change in fluorescence intensity at 1 uM after 45 mins by fluorescence quenching analysis relative to control

An Activity [1] of 45.6%, an Activity [2] of 49.4% and an Activity [3] of 38.9% were found for `NCC1O[C@H](O[C@H]2[C@@H](O)[C@H](O[C@@H]3[C@@H](O)[C@H](N)C[C@H](N)[C@H]3O[C@H]3O[C@H](CN)[C@@H](O)[C@H](O)[C@H]3N)O[C@@H]2CSCCNC(=O)CCSCC(=O)Nc2ccc(-c3c4ccc(=O)cc-4oc4cc(O)ccc34)c(C(=O)O)c2)[C@H](N)[C@@H](O)[C@@H]1O` (stereo partly specified) in this work. The Activity [4] was 50.8%, the Activity [5] was 40.2% and the Activity [6] was 37.6%. It also gave an Activity [7] of 51.2%, an Activity [8] of 25.1% and an Activity [9] of 37.9%. It also gave an Activity [10] of 40.4%, an Activity [11] of 49.3% and an Activity [12] of 48.9%. It also gave an Activity [13] of 40.2%, an Activity [14] of 45.2% and an Activity [15] of 45.7%. For the same compound, the Activity [16] was 16%, the Activity [17] was 48.6% and the Activity [18] was 46.7%. The Activity [19] was 40.7%, the Activity [20] was 44.1% and the Activity [21] was 43.8%. For the same compound, the Activity [22] was 38.4%, the Activity [23] was 15% and the Activity [24] was 47.6%. For the same compound, the Activity [25] was 43.4%, the Activity [26] was 45.7% and the Activity [27] was 32.7%. The Activity [28] was 44.1%, the Activity [29] was 46.2% and the Activity [30] was 52.4%. For the same compound, the Activity [31] was 54.5%, the Activity [32] was 50.6% and the Activity [33] was 49.5%. It also gave an Activity [34] of 48%, an Activity [35] of 35.9% and an Activity [36] of 46.9%.
